Laboratory results as given in patent publication US9649309B2 (priority 2014, dated 2017).

What was measured:
[1] = biological target: Axl (Homo sapiens (Human), UniProt P30530); conditions: read-out: IC50 Axl
[2] = biological target: Tyro3 (Homo sapiens (Human), UniProt Q06418); conditions: read-out: IC50 Tyro3
Sequence of Tyro3 (Q06418 41-890 limits assumed): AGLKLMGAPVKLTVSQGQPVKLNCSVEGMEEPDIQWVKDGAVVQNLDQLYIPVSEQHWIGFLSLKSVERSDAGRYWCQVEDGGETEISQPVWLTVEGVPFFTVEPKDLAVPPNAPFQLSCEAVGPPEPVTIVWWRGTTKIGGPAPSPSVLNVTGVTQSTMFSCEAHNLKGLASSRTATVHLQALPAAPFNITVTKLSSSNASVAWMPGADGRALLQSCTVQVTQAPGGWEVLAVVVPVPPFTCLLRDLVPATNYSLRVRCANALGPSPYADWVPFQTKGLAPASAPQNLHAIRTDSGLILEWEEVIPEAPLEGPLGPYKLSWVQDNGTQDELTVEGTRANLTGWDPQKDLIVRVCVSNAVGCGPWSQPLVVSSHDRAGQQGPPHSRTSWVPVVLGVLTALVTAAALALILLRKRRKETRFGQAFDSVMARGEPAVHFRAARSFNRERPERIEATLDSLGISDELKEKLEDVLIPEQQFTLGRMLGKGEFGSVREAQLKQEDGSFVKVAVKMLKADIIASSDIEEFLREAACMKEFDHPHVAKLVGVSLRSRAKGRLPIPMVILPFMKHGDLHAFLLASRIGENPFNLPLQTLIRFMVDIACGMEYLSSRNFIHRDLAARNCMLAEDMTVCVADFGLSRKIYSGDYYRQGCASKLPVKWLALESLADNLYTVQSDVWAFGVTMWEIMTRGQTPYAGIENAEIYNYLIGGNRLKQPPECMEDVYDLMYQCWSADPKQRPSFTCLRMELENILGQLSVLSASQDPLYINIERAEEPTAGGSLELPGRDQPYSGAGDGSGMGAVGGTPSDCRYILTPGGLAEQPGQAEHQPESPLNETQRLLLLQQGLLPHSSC

Sequence of Axl (P30530 26-894 limits assumed): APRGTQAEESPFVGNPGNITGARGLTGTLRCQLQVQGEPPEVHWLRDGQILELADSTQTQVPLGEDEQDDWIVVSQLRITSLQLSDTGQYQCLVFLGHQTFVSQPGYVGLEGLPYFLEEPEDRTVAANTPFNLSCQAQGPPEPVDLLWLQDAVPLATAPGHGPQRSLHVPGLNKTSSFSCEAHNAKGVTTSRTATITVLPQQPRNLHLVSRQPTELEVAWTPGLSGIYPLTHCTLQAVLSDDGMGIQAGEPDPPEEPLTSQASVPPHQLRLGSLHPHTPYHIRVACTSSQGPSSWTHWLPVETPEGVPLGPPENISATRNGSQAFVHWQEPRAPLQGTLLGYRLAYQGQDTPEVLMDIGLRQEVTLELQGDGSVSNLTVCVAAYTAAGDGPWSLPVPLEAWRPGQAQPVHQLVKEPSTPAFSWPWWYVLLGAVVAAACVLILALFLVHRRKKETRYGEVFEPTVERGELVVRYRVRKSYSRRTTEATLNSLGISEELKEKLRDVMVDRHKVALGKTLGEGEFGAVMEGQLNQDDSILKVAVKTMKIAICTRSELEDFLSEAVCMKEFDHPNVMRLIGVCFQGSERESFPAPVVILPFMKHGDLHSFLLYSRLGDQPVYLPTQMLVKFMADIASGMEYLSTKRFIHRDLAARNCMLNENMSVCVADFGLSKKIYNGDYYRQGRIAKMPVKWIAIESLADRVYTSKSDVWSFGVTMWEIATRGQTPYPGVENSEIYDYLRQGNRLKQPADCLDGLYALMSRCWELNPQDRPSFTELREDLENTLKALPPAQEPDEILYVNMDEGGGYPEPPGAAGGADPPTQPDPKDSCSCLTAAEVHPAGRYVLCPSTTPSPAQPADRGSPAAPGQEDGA

Row | Structure (SMILES) | IC50 [1] [nM] | IC50 [2] [nM]
1 | CCCCNc1ncc(C(=O)NCC2CCCCC2)c(N[C@H]2CC[C@H](O)CC2)n1 [UNC2603A] | 1120 | 506
2 | CCCCNc1ncc(C(=O)NCCCN2CCOCC2)c(NCCCC)n1 [UNC1840A] | 5540 | 4640
3 | CCCCNc1ncc(C(=O)NCc2ccc(C3=CCCCC3)nc2)c(N[C@H]2CC[C@H](O)CC2)n1 [UNC4256A] | 743 | 340
4 | CCCCNc1ncc(-c2ncc(C(=O)O)s2)c(N[C@H]2CC[C@H](O)CC2)n1 [UNC3331A] | 414 | 95
5 | CCCCNc1ncc(-c2ccccn2)c(NCCO)n1 [UNC2997A] | 30000 | 20000
6 | CCCCNc1ncc(-c2cnc(N)cn2)c(N[C@H]2CC[C@H](O)CC2)n1 [UNC3041A] | 968 | 605
7 | CCCCNc1ncc(-c2ccc(NC(=O)C3CCCC3)cn2)c(NC2CCC(O)CC2)n1 (centres unmarked) [UNC2791A] | 886 | 416
8 | CCCCNc1ncc(-c2ccc(C3=CCN(C(C)C)CC3)cn2)c(N[C@H]2CC[C@H](O)CC2)n1 [UNC4358A] | 24 | 42
9 | CCCCNc1ncc(-c2cc(Nc3ccccc3OC)ncn2)c(N[C@H]2CC[C@H](O)CC2)n1 [UNC4272A] | 12300 | 194
10 | CCCCNc1ncc(-c2ccc(C=O)o2)c(N[C@H]2CC[C@H](O)CC2)n1 [UNC2902A, 5-(2-(Butylamino)-4-((trans-4-hydroxycyclohexyl)amino)pyrimidin-5-yl)furan-2-carbaldehyde] | 1630 | 241
11 | CCCCNc1ncc(-c2ncc(C(N)=O)s2)c(N[C@H]2CC[C@H](O)CC2)n1 [UNC3134A] | 146 | 62
12 | CCCCNc1ncc(C(=O)NCC2CCN(C(C)=O)CC2)c(N[C@H]2CC[C@H](O)CC2)n1 [UNC4288A] | 1050 | 262
13 | CCCCNc1ncc(C(=O)NCC2CCNCC2)c(N[C@H]2CC[C@H](O)CC2)n1 [UNC4287A] | 960 | 494
14 | CCCCNc1ncc(-c2cncc(N3CCCC3)n2)c(N[C@H]2CC[C@H](O)CC2)n1 [UNC3115A] | 642 | 415
15 | CCCCNc1ncc(C(=O)NCc2ccc(-n3cnc(-c4ccccc4)c3)cc2)c(N[C@H]2CC[C@H](O)CC2)n1 [UNC2969A] | 667 | 1060
16 | CCCCNc1ncc(-c2cc(Nc3cccc([N+](=O)[O-])c3)ncn2)c(N[C@H]2CC[C@H](O)CC2)n1 [UNC4322A] | 30000 | 889
17 | CCCCNc1ncc(C(=O)NCc2ccc(-c3ccc(OC)cc3)nc2)c(N[C@H]2CC[C@H](O)CC2)n1 [UNC4238A] | 698 | 242
18 | CCCCNc1ncc(-c2ccc(-c3cccc(C(=O)O)c3)nn2)c(N[C@H]2CC[C@H](O)CC2)n1 [UNC3141A] | 30000 | 
19 | CCCCNc1ncc(C(=O)NCc2ccc(-c3ccc4ccccc4c3)nc2)c(N[C@H]2CC[C@H](O)CC2)n1 [UNC4235A] | 1800 | 1270
20 | CCCCNc1ncc(-c2ccc(N3CCN(C(=O)OC(C)(C)C)CC3)nn2)c(N[C@H]2CC[C@H](O)CC2)n1 [UNC3071A] | 275 | 298
21 | CCCCNc1ncc(C(=O)NCc2ccc(-n3ccnc3C)cc2)c(N[C@H]2CC[C@H](O)CC2)n1 [UNC3004A] | 822 | 272
22 | CCCCNc1ncc(-c2cc(NC(=O)c3ccc(F)cc3)ncn2)c(N[C@H]2CC[C@H](O)CC2)n1 [UNC3182A] | 30000 | 30000
23 | CCCCNc1ncc(-c2ccc(C(=O)O)nn2)c(N[C@H]2CC[C@H](O)CC2)n1 [UNC3042A] | 558 | 192
24 | C=CCN1CCC(CNC(=O)c2cnc(NCCCC)nc2N[C@H]2CC[C@H](O)CC2)CC1 [UNC4303A] | 777 | 486
25 | CCCCNc1ncc(C(=O)NCc2ccc(-n3cnc(CO)c3)cc2)c(N[C@H]2CC[C@H](O)CC2)n1 [UNC3183A] | 703 | 372
26 | CCCCNc1ncc(-c2cc(NC3CCCCCC3)ncn2)c(N[C@H]2CC[C@H](O)CC2)n1 [UNC4261A] | 579 | 380
27 | CCCCNc1ncc(-c2cnc(N)c(OC)n2)c(N[C@H]2CC[C@H](O)CC2)n1 [UNC3043A] | 2310 | 1640
28 | CCCCNc1ncc(C(=O)NCc2ccc(N3CCOCC3)cc2)c(N[C@H]2CC[C@H](O)CC2)n1 [UNC2804A] | 592 | 210
29 | CCCCNc1ncc(C(=O)NCc2ccon2)c(N[C@H]2CC[C@H](O)CC2)n1 [UNC4290A] |  | 375
30 | CCCCNc1ncc(C(=O)Nc2ccc(CN3CCN(C)CC3)cc2)c(N[C@H]2CC[C@H](O)CC2)n1 [UNC2764A] | 177 | 

Continued by falling IC50 [2], values first:

Row | IC50 [1] [nM] | IC50 [2] [nM] | Structure (SMILES)
31 | 325 | 183 | CCCCNc1ncc(C(=O)NCc2ccc(N3CCCC3)cc2)c(N[C@H]2CC[C@H](O)CC2)n1 [UNC2886A]
32 | 277 | 172 | CCCCNc1ncc(C(=O)NCc2ccc(-n3cccn3)cc2)c(N[C@H]2CC[C@H](O)CC2)n1 [UNC2744A]
33 | 191 | 166 | CCCCNc1ncc(C(=O)NC2CCN(CC3CCCC3)CC2)c(N[C@H]2CC[C@H](O)CC2)n1 [UNC2878A]
34 | 597 | 157 | CCCCNc1ncc(-c2nccs2)c(N[C@H]2CC[C@H](O)CC2)n1 [UNC3047A]
35 | 158 | 121 | CCCCNc1ncc(-c2cc(Nc3cccc(OC)c3)ncn2)c(N[C@H]2CC[C@H](O)CC2)n1 [UNC4270A]
36 | 205 | 113 | CCCCNc1ncc(C(=O)NC2CCN(CCCc3ccccc3)CC2)c(N[C@H]2CC[C@H](O)CC2)n1 [UNC2801A]
37 | 364 | 109 | CCCCNc1ncc(-c2cc(NC)ncn2)c(N[C@H]2CC[C@H](O)CC2)n1 [UNC3126A]
38 | 266 | 98 | CCCCNc1ncc(C(=O)Nc2ccc(CCN3CCN(C)CC3)cc2)c(N[C@H]2CC[C@H](O)CC2)n1 [UNC2806A]
39 | 216 | 92 | CCCCNc1ncc(C(=O)NCc2ccc(-c3cccnc3)nc2)c(N[C@H]2CC[C@H](O)CC2)n1 [UNC4236A]
40 | 119 | 28 | CCCCNc1ncc(-c2ccc(CN3C[C@H](C)NC[C@H]3C)cn2)c(NC2CCC(O)CC2)n1 (some centres unmarked) [UNC4109A]
41 |  | 27 | CCCCNc1ncc(-c2ccc(CN3CC(C)NC(C)C3)cn2)c(NC2CCC(O)CC2)n1 (centres unmarked) [UNC4105A]
42 | 43 | 24 | O[C@H]1CC[C@H](Nc2nc(NCCC3CC3)ncc2-c2ccc(CN3CCCC3)cn2)CC1 [UNC4197A]
43 | 39 | 22 | CCCCNc1ncc(-c2ccc(CC3CCN(C(C)C)CC3)cn2)c(N[C@H]2CC[C@H](O)CC2)n1 [UNC4339A, trans-4-((2-(butylamino)-5-(5-((1-isopropylpiperidin-4-yl)methyl)pyridin-2-yl)pyrimidin-4-yl)amino)cyclohexan-1-ol]
44 |  | 19 | CCCCNc1ncc(-c2ccc(CN3CCNCC3(C)C)cn2)c(NC2CCC(O)CC2)n1 (centres unmarked) [UNC4110A]
45 | 93 | 18 | CCCCNc1ncc(-c2ccc(C3(N4CCOCC4)CC3)cn2)c(NC2CCC(O)CC2)n1 (centres unmarked) [UNC3664A]
46 | 55 | 18 | CCCCNc1ncc(-c2ccc(CN3CCN[C@H](C)C3)cn2)c(NC2CCC(O)CC2)n1 (some centres unmarked) [UNC4113A]
47 | 47 | 7.4 | CCCCNc1ncc(-c2ccc(C3(N4CCOCC4)CCCC3)cn2)c(NC2CCC(O)CC2)n1 (centres unmarked) [UNC3667A]
